In ChEMBL document CHEMBL1201862, “PubChem BioAssay data set” (2004):
Where “and” joins values, the source holds several entries; their conditions need not be identical. Equal values may be shown once.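 Interpolation was linear, between the two tested concentrations surrounding the appropriate level; five concentrations were tested over 48 hours in 96-well plates. GI50 marks 50% less growth.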 Calls of active or inactive are those of the source. No stated cut-off is given here; in the data, active = GI50 up to about 1.1 µM and inactive = higher.

Columns and labels:
Assay in all cases: inhibition of tumour cell growth, NCI panel, 48 h
SW-620 = test system: SW-620
HL-60 = test system: HL-60
NCI-H23 = test system: NCI-H23
NCI-H226 = test system: NCI-H226
U-251 = test system: U-251
BT-549 = test system: BT-549
SF-268 = test system: SF-268
RXF 393 = test system: RXF 393
HCT-116 = test system: HCT-116
RPMI-8226 = test system: RPMI-8226
OVCAR-8 = test system: OVCAR-8
TK-10 = test system: TK-10
HT-29 = test system: HT-29
M14 = test system: M14
HCC 2998 = test system: HCC 2998
A549 = test system: A549
UO-31 = test system: UO-31
CCRF-CEM = test system: CCRF-CEM
PC-3 = test system: PC-3
SK-OV-3 = test system: SK-OV-3
HOP-62 = test system: HOP-62
CAKI-1 = test system: CAKI-1
DU-145 = test system: DU-145
SK-MEL-5 = test system: SK-MEL-5
MDA-N = test system: MDA-N
OVCAR-3 = test system: OVCAR-3
SF-295 = test system: SF-295
A498 = test system: A498
K562 = test system: K562
SNB-19 = test system: SNB-19
KM12 = test system: KM12
NCI/ADR-RES = test system: NCI/ADR-RES
OVCAR-5 = test system: OVCAR-5
IGROV-1 = test system: IGROV-1
SK-MEL-2 = test system: SK-MEL-2
ACHN = test system: ACHN
786-0 = test system: 786-0
Hs-578T = test system: Hs-578T
MOLT-4 = test system: MOLT-4
EKVX = test system: EKVX
Malme-3M = test system: Malme-3M
SNB-75 = test system: SNB-75
NCI-H460 = test system: NCI-H460
HOP-92 = test system: HOP-92
MDA-MB-435 = test system: MDA-MB-435
SK-MEL-28 = test system: SK-MEL-28
SN12C = test system: SN12C
SF-539 = test system: SF-539
OVCAR-4 = test system: OVCAR-4
NCI-H522 = test system: NCI-H522
LOX IMVI = test system: LOX IMVI
UACC-62 = test system: UACC-62
T47D = test system: T47D
SR = test system: SR
COLO 205 = test system: COLO 205
HCT-15 = test system: HCT-15
UACC-257 = test system: UACC-257
MCF7 = test system: MCF7
MDA-MB-231 = test system: MDA-MB-231

**Q.** Which GI50 (SW-620) does the source give for `CCOC(=O)Cn1nnc2ccc(Nc3nc4ccccc4nc3-c3ccccc3)cc21` here?
**A.** > 100 µM (inactive)

**Q.** What about the GI50 (HL-60) of the same molecule?
**A.** > 100 µM (inactive)

**Q.** And the GI50 (NCI-H23)?
**A.** > 100 µM (inactive)

**Q.** What about the GI50 (NCI-H226) of the same molecule?
**A.** > 100 µM (inactive)

**Q.** And the GI50 (U-251)?
**A.** 71.4 µM (inactive)

**Q.** What about the GI50 (BT-549) of the same molecule?
**A.** > 100 µM (inactive)

**Q.** And the GI50 (SF-268)?
**A.** 65.5 µM (inactive)

**Q.** And the GI50 (RXF 393)?
**A.** > 100 µM (inactive)

**Q.** What about the GI50 (HCT-116) of the same molecule?
**A.** 95.3 µM (inactive)

**Q.** And the GI50 (RPMI-8226)?
**A.** > 100 µM (inactive)

**Q.** And the GI50 (OVCAR-8)?
**A.** > 100 µM (inactive)

**Q.** What about the GI50 (TK-10) of the same molecule?
**A.** 25.4 µM (inactive)

**Q.** And the GI50 (HT-29)?
**A.** > 100 µM (inactive)

**Q.** And the GI50 (M14)?
**A.** 95.5 µM (inactive)

**Q.** And the GI50 (HCC 2998)?
**A.** 17.3 µM (inactive)

**Q.** What about the GI50 (A549) of the same molecule?
**A.** > 100 µM (inactive)

**Q.** What about the GI50 (UO-31) of the same molecule?
**A.** 4.72 µM (inactive)

**Q.** What about the GI50 (CCRF-CEM) of the same molecule?
**A.** > 100 µM (inactive)

**Q.** What about the GI50 (PC-3) of the same molecule?
**A.** > 100 µM (inactive)

**Q.** And the GI50 (SK-OV-3)?
**A.** 90.8 µM (inactive)

**Q.** And the GI50 (HOP-62)?
**A.** 48 µM (inactive)

**Q.** And the GI50 (CAKI-1)?
**A.** > 100 µM (inactive)

**Q.** And the GI50 (DU-145)?
**A.** 11 µM (inactive)

**Q.** What about the GI50 (SK-MEL-5) of the same molecule?
**A.** > 100 µM (inactive)

**Q.** And the GI50 (MDA-N)?
**A.** > 100 µM (inactive)

**Q.** And the GI50 (OVCAR-3)?
**A.** 60.7 µM (inactive)

**Q.** What about the GI50 (SF-295) of the same molecule?
**A.** 85.5 µM (inactive)

**Q.** What about the GI50 (A498) of the same molecule?
**A.** > 100 µM (inactive)

**Q.** What about the GI50 (K562) of the same molecule?
**A.** > 100 µM (inactive)

**Q.** And the GI50 (SNB-19)?
**A.** 70 µM (inactive)

**Q.** What about the GI50 (KM12) of the same molecule?
**A.** > 100 µM (inactive)

**Q.** What about the GI50 (NCI/ADR-RES) of the same molecule?
**A.** > 100 µM (inactive)

**Q.** And the GI50 (OVCAR-5)?
**A.** > 100 µM (inactive)

**Q.** And the GI50 (IGROV-1)?
**A.** > 100 µM (inactive)

**Q.** What about the GI50 (SK-MEL-2) of the same molecule?
**A.** > 100 µM (inactive)

**Q.** What about the GI50 (ACHN) of the same molecule?
**A.** > 100 µM (inactive)

**Q.** And the GI50 (786-0)?
**A.** 32.3 µM (inactive)

**Q.** What about the GI50 (Hs-578T) of the same molecule?
**A.** 75.2 µM (inactive)

**Q.** What about the GI50 (MOLT-4) of the same molecule?
**A.** > 100 µM (inactive)

**Q.** And the GI50 (EKVX)?
**A.** > 100 µM (inactive)

**Q.** And the GI50 (Malme-3M)?
**A.** > 100 µM (inactive)

**Q.** What about the GI50 (SNB-75) of the same molecule?
**A.** 30.8 µM (inactive)

**Q.** And the GI50 (NCI-H460)?
**A.** 48.6 µM (inactive)

**Q.** What about the GI50 (HOP-92) of the same molecule?
**A.** > 100 µM (inactive)

**Q.** What about the GI50 (MDA-MB-435) of the same molecule?
**A.** > 100 µM (inactive)

**Q.** And the GI50 (SK-MEL-28)?
**A.** > 100 µM (inactive)

**Q.** And the GI50 (SN12C)?
**A.** > 100 µM (inactive)

**Q.** And the GI50 (SF-539)?
**A.** 59.6 µM (inactive)

**Q.** What about the GI50 (OVCAR-4) of the same molecule?
**A.** 68.9 µM (inactive)

**Q.** What about the GI50 (NCI-H522) of the same molecule?
**A.** > 100 µM (inactive)

**Q.** And the GI50 (LOX IMVI)?
**A.** > 100 µM (inactive)

**Q.** What about the GI50 (UACC-62) of the same molecule?
**A.** > 100 µM (inactive)

**Q.** And the GI50 (T47D)?
**A.** > 100 µM (inactive)

**Q.** What about the GI50 (SR) of the same molecule?
**A.** > 100 µM (inactive)

**Q.** What about the GI50 (COLO 205) of the same molecule?
**A.** > 100 µM (inactive)

**Q.** What about the GI50 (HCT-15) of the same molecule?
**A.** > 100 µM

**Q.** What about the GI50 (UACC-257) of the same molecule?
**A.** 70.5 µM (inactive)

**Q.** What about the GI50 (MCF7) of the same molecule?
**A.** > 100 µM (inactive)

**Q.** How did the GI50 (SW-620) turn out when `CN1C=c2c3c(ccc2=C2C=CC4C=C5OCOC5=CC4=C21)OCO3` (configuration not stated) was run?
**A.** 1.05 µM (active) and 1.58 µM (inactive)

**Q.** And the GI50 (HL-60)?
**A.** 285 nM (active) and 170 nM (active)

**Q.** And the GI50 (NCI-H23)?
**A.** 1.53 µM (inactive) and 2.98 µM (inactive)

**Q.** And the GI50 (U-251)?
**A.** 1.57 µM (inactive) and 2.34 µM (inactive)

**Q.** And the GI50 (BT-549)?
**A.** 2.15 µM (inactive) and 1.58 µM (inactive)

**Q.** What about the GI50 (SF-268) of the same molecule?
**A.** 2.42 µM (inactive) and 1.61 µM (inactive)

**Q.** And the GI50 (RXF 393)?
**A.** 1.98 µM (inactive) and 1.04 µM (active)

**Q.** And the GI50 (HCT-116)?
**A.** 1.66 µM (inactive) and 1.02 µM (active)

**Q.** What about the GI50 (HT-29) of the same molecule?
**A.** 2.07 µM (inactive) and 1.62 µM (inactive)

**Q.** What about the GI50 (M14) of the same molecule?
**A.** 1.21 µM (inactive) and 1.73 µM (inactive)

**Q.** And the GI50 (UO-31)?
**A.** 2.1 µM (inactive) and 1.47 µM (inactive)

**Q.** What about the GI50 (PC-3) of the same molecule?
**A.** 2.96 µM (inactive) and 1.52 µM (inactive)

**Q.** What about the GI50 (HOP-62) of the same molecule?
**A.** 2.28 µM (inactive) and 1.55 µM (inactive)

**Q.** And the GI50 (SK-MEL-5)?
**A.** 2.44 µM (inactive) and 1.6 µM (inactive)

**Q.** What about the GI50 (MDA-N) of the same molecule?
**A.** 1.85 µM (inactive) and 1.35 µM (inactive)

**Q.** And the GI50 (OVCAR-3)?
**A.** 871 nM (active) and 1.58 µM (inactive)

**Q.** And the GI50 (MDA-MB-231)?
**A.** 2 µM (inactive) and 1.22 µM (inactive)

**Q.** And the GI50 (IGROV-1)?
**A.** 1.99 µM (inactive) and 1.65 µM (inactive)

**Q.** And the GI50 (SK-MEL-2)?
**A.** 2.69 µM (inactive) and 1.95 µM (inactive)

**Q.** And the GI50 (786-0)?
**A.** 1.66 µM (inactive) and 1.31 µM (inactive)

**Q.** And the GI50 (Hs-578T)?
**A.** 1.9 µM (inactive) and 2.65 µM (inactive)

**Q.** And the GI50 (Malme-3M)?
**A.** 2.44 µM (inactive) and 1.6 µM (inactive)

**Q.** And the GI50 (SNB-75)?
**A.** 1.87 µM (inactive) and 3.72 µM (inactive)

**Q.** And the GI50 (MDA-MB-435)?
**A.** 1.06 µM (active) and 1.85 µM (inactive)

**Q.** And the GI50 (SK-MEL-28)?
**A.** 1.59 µM (inactive) and 2.89 µM (inactive)

**Q.** And the GI50 (SN12C)?
**A.** 1.92 µM (inactive) and 1.56 µM (inactive)

**Q.** And the GI50 (SF-539)?
**A.** 2.28 µM (inactive) and 1.71 µM (inactive)

**Q.** What about the GI50 (OVCAR-4) of the same molecule?
**A.** 1.85 µM (inactive) and 3.11 µM (inactive)

**Q.** What about the GI50 (NCI-H522) of the same molecule?
**A.** 1.5 µM (inactive) and 1.45 µM (inactive)

**Q.** What about the GI50 (LOX IMVI) of the same molecule?
**A.** 1.8 µM (inactive) and 1.6 µM (inactive)

**Q.** And the GI50 (T47D)?
**A.** 1.75 µM (inactive) and 2.28 µM (inactive)

**Q.** What about the GI50 (COLO 205) of the same molecule?
**A.** 1.89 µM (inactive) and 1.4 µM (inactive)

**Q.** And the GI50 (HCT-15)?
**A.** 1.41 µM and 1.7 µM

**Q.** What about the GI50 (UACC-257) of the same molecule?
**A.** 3.15 µM (inactive) and 1.76 µM (inactive)
